In EP0307071B1, “Flavor and fragrance enhancing enzymes” (YISSUM RESEARCH DEVELOPMENT COMPANY OF THE HEBREW …, priority 1987, dated 1989):
Like-named read-outs stand apart in the source and are kept apart here.

Molecular target: T1, Aspergillus niger B1 endo-β-glucosidase B1 (strain CMI CC 324626) preparation (Aspergillus niger, UniProt A2RAL4)
T1 sequence (A2RAL4 20-860): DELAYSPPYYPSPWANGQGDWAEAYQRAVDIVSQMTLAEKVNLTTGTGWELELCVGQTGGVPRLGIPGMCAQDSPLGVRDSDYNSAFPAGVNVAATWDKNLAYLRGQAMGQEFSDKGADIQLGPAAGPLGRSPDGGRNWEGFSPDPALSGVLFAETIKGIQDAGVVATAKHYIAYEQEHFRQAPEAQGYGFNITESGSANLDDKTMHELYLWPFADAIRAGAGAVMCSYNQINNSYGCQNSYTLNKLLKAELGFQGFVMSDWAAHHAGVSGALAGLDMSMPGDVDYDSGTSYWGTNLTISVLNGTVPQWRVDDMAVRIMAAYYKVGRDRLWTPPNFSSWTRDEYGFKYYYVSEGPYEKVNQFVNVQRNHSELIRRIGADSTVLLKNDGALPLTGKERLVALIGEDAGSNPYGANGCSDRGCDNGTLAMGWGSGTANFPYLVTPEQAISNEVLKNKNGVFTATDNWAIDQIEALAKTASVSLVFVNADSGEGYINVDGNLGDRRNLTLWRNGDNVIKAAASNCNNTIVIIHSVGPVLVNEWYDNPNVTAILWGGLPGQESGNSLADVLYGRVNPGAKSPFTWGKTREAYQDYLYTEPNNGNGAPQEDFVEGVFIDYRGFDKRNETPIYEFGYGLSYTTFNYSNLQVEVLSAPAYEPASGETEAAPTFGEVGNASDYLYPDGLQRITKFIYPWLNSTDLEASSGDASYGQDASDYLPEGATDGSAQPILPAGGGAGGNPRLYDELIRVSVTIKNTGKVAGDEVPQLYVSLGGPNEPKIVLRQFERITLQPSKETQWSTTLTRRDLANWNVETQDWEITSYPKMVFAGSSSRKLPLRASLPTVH
Assay: β-glucosidase kinetics and inhibition by standard procedures (PNPG or geranyl β rutinoside as substrates)
Assay type: biochemical, Aspergillus niger B1 strain CMI CC 324626
Details: remaining enzyme activity
Method: The concentrations of free and bound monoterpenes are preferably determined according to the method of Dimitriadis et. al. (Amer J. Enol. Vitic. 35:66-71 (1984) which reference is herein incorporated by reference). The activity of the endo-β-glucosidase of the present invention is preferably determined by standard methods using either PNPG or geranyl beta rutinoside as substrates.
The β-glucosidase activity was assayed by incubating 25 µl of enzyme preparation in 1 ml of 1 mM PNPG (p-nitrophenyl-β-D-glucopyranoside) for 2 minutes at 35°. The reaction was terminated by adding 200 µl of 1M Na2CO3 and the OD was read at 399 nm.
The supernatant and the filtered samples were then separately incubated with 20 ml of 1 mg/l of wine glycosides for 20 hours at 30°. Free monoterpenes were then analyzed according to Dimitriadis et al. (Amer J. Enol. Vitic. 35:66-71 (1984)). Characterization of the A. niger B1 β-glucosidase B1 activity included the determination of pH, ionic strength, temperature, and ethanol response curves, Km, Vmax and Ki for glucose, by standard procedures. In addition, the effect of various concentrations of grape juice (Muscat of Alexandria) sucrose, fructose and SO2 on the enzyme activity was determined by conventional methods. […]

OC[C@H]1O[C@@](CO)(O[C@H]2O[C@H](CO)[C@@H](O)[C@H](O)[C@H]2O)[C@@H](O)[C@@H]1O [sucrose]
activity at 1 M (1M sucrose, read-out: Activity in the presence of 1M sucrose): 90%

O=C(CO)[C@@H](O)[C@H](O)[C@H](O)CO [Fructose, fructose]
activity at 1 M (1M Fructose, read-out: Activity in the presence of 1M Fructose): 90%

SO2
Activity in the presence of 200ppm SO2 (200ppm SO2): 100%
